The text below walks through data of publication PMC4111878, “Three New Humulane Sesquiterpenes from Cultures of the Fungus Antrodiella albocinnamomea” (Natural Products and Bioprospecting, 2014).

One assay deals with T1, PTP1Bc (Homo sapiens, UniProt P18031).
T1 sequence (P18031 1-298 limits assumed): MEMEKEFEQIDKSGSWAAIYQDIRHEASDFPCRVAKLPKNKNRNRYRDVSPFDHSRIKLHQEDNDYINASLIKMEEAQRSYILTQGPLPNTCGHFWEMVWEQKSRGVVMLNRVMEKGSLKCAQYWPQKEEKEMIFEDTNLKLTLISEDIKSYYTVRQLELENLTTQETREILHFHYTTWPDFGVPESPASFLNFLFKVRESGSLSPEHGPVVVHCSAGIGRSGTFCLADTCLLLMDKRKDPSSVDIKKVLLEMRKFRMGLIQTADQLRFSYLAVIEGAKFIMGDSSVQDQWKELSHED
In words: Enzyme inhibition assay against protein-tyrosine phosphatase PTP1Bc (pNPP hydrolysis). Type of assay: biochemical. As to conditions: recombinant His-tagged enzyme, 20 ng per well, pNPP 2 mM, pH 6.0, room temperature, 15 min preincubation, triplicate; NA = no activity; read-out: inhibitory activity against protein-tyrosine phosphatase PTP1Bc, IC50 (converted). The protocol: (§1) The enzymatic assay was carried out at room temperature in 96-well plates. After the assay buffer which contained 100 mM Hepes (pH 6.0), 5 mM DTT 0.015 % Brij-35 and PTPase (20 ng PTP1B, 10 ng MEG2per well) was incubated with tested compounds for 15 min, the reaction was initiated by addition of the substrate p-nitrophenol phosphate (pNPP, Sigma, P4744, St. Louis, USA) at a final concentration of 2 mM. The activity of PTPase-catalyzed hydrolysis of pNPP was determined by measuring the amount of p-nitrophenol and the absorbance at 405 nm was recorded as the amount of p-nitrophenol. The IC50 value was determined by the non-linear curve fitting of the percentage inhibition versus inhibitor concentration plot. […] Louis, USA) was used for the positive control. All the assays were carried out in triplicate and the average results were presented.

In the next assay the target is T2, MEG2 (Homo sapiens, UniProt P43378).
T2 construct: 6xHis (N); made in house; host or cells: E. coli
T2 sequence (P43378 1-593): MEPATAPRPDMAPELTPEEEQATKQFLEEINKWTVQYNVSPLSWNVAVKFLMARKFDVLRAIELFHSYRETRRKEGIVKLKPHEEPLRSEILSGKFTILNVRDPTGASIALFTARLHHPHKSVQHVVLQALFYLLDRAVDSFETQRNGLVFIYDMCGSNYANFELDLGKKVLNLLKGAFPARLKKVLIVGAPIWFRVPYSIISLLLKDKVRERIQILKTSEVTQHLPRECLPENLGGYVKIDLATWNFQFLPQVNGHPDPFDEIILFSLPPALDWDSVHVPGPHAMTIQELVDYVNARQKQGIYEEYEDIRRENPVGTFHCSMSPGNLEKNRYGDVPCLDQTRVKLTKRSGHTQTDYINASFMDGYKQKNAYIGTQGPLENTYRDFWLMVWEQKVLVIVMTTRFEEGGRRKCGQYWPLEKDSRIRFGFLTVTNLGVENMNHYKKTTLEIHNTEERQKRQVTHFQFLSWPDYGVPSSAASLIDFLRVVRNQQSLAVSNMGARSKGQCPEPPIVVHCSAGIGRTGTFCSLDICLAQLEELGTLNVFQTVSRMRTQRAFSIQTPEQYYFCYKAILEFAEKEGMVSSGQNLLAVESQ
The experiment in a line: Enzyme inhibition assay against protein-tyrosine phosphatase MEG2 (pNPP hydrolysis). Type of assay: biochemical. The settings on record: recombinant His-tagged enzyme, 10 ng per well, pNPP 2 mM, pH 6.0, room temperature, 15 min preincubation, triplicate; NA = no activity; read-out: inhibitory activity against protein-tyrosine phosphatase MEG2, IC50 (converted). Here is the method:
as §1

As a reminder, the IC50 is the midpoint of a concentration-inhibition curve. With `CC1=CC(O)C(C)(O)C(C)CCC2(C)OC2CC1` (stereo not shown) [Compound 1, 6,7-epoxy-10E-humulen-1,2-diol], the IC50 is 39.3 µM at PTP1Bc and 31.5 µM at MEG2.
Regarding `CC1(C)C=CC(O)C2(C)OC2CCC2(C)OC2C1` (stereo not drawn) [Compound 3, 6,7:10,11-diepoxy-3E-humulen-5β-ol], the 50% inhibitory concentration (IC50) on PTP1Bc is 59.8 µM.
As to `C[C@H]1[C@H](C)CC[C@]2(C(=O)O)CC[C@]3(C)C(=CC[C@@H]4[C@@]5(C)CC[C@H](O)C(C)(C)[C@@H]5CC[C@]43C)[C@H]12` [Ursolic acid, reference compound], on MEG2, the IC50 was 1.75 µM.
